The first test deals with CDK4/CyclinD1 (Homo sapiens, UniProt P11802). As to the kind of experiment: CDK4/CyclinD1 Flashplate assay, 96-well format, biotinylated-Rb peptide substrate. In kind it is biochemical.
Sequence of CDK4/CyclinD1 (P11802 whole entry, species assumed): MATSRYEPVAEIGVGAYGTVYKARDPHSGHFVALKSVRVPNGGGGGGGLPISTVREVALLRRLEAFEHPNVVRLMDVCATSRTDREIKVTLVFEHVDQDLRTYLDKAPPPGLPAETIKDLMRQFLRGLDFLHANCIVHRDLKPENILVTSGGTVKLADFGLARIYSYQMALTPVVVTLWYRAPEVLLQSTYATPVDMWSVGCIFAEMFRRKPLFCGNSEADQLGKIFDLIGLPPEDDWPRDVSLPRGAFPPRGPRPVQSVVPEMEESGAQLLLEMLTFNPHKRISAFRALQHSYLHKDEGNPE
Sequence of CDK4/CyclinD1 (P24385 whole entry partner, species assumed): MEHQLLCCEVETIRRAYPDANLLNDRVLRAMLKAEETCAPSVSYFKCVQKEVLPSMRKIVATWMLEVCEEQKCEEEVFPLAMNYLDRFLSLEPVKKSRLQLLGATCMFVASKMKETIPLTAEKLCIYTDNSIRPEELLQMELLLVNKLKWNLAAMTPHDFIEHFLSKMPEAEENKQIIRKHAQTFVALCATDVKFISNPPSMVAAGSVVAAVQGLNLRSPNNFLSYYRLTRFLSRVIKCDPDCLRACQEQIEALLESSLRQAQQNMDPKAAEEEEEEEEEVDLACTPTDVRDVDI
Settings: not given
Here is the method: This is a CDK4/CyclinD1 kinase assay in a 96-well Streptavidin-coated Flashplate with a biotinylated-Rb peptide substrate.
Each point is tested in duplicate
Biotinylated-Rb: Biotin-[…]
• 1. Prepare substrate: 1 mg/ml solution made fresh in PBS. • 2. Add 100 μg per well to the Flashplate. • 3. Incubate for 2 hours at RT. • 4. From 10 mM inhibitor stocks in DMSO, make 1 mM, 300 μM, 100 μM, 30 μM and 10 μM series of dilution in DMSO. • 5. Wash the Flashplate 3 times with 300 μl PBS to remove unbound peptide substrate. • 6. Add the CDK4/CyclinD1 kinase: 70 ng per well, in a volume of 90 μl in kinase buffer (except for “no enzyme” control wells). • 7. Add 1 μl^1 per well of inhibitor to test 10 μM, 3 μM, 1 μM, 0.3 μM and 0.1 μM in final concentration per 100 μl in each well. • 8. Shake gently the Flashplate 1 minute. • 9. Incubate 30 minutes on wet ice. • 10. Initiate the reaction with 10 μl kinase buffer containing 1 μM final cold ATP and 1 μCi final ^33P-ATP per well. • 11. Shake gently the Flashplate 1 minute. • 12. Incubate 45 minutes at RT (no shaking). • 13. Wash the Flashplate 3 times with 300 μl PBS • 14. Count to detect the incorporation of ^33P-ATP by the kinase to the Rb phosphorylation site.
Turning to `CC(C)N(CCNc1ccc(S(=O)(=O)Oc2ccc3[nH]c(NC(=O)C4CC4)nc3c2)cc1)C(C)C` [Example 60-t, 4-(2-Diisopropylamino-ethylamino)-benzenesulfonic acid 2-(cyclopropanecarbonyl-amino)-1H-benzoimidazol-5-yl ester], the IC50 – broadly, the concentration needed to halve the response being measured – amounted to 2000 nM. Still for that read-out and setting: under `O=C(Nc1nc2cc(OS(=O)(=O)c3ccc(NCCNc4ccccc4)cc3)ccc2[nH]1)C1CC1` [Example 60-w, 4-(2-Phenylamino-ethylamino)-benzenesulfonic acid 2-(cyclopropanecarbonyl-amino)-1H-benzoimidazol-5-yl ester] stands 500 nM. With `COC(=O)Nc1nc2cc(OS(=O)(=O)c3c(C)noc3C)ccc2[nH]1` [Example 62-a, 3,5-Dimethyl-isoxazole-4-sulfonic acid 2-methoxycarbonylamino-1H-benzoimidazol-5-yl ester], the inhibition (in general, the share of the control response that was lost under treatment) at 10 µM came to 50%. On to `CCN(CC)CCNc1ccc(S(=O)(=O)Oc2ccc3[nH]c(NC(=O)C4CC4)nc3c2)cc1` [Example 60-q, 4-(2-Diethylamino-ethylamino)-benzenesulfonic acid 2-(cyclopropanecarbonyl-amino)-1H-benzoimidazol-5-yl ester], for which the IC50 came to 1800 nM. The same measure, in the same setting: the value for `COC(=O)Nc1nc2cc(OS(=O)(=O)c3cccc(C(F)(F)F)c3)ccc2[nH]1` [Example 62-m, 3-Trifluoromethyl-benzenesulfonic acid 2-methoxycarbonylamino-1H-benzoimidazol-5-yl ester] was 1200 nM; that for `O=C(O)[C@@H]1CCCN1C(=O)Nc1nc2cc(OS(=O)(=O)c3ccc(NC4CCCC4)cc3)ccc2[nH]1` [Example 58-q, 1-[5-(4-Cyclopentylamino-benzenesulfonyloxy)-1H-benzoimidazol-2S-ylcarbamoyl]-pyrrolidine-2-carboxylic acid] was 1000 nM. On the same count and under the same terms, the value for `O=C(Nc1nc2cc(OS(=O)(=O)c3ccc(NC4CCC(O)CC4)cc3)ccc2[nH]1)C1CC1` (centres unmarked) [Example 60-p, 4-(4-Hydroxy-cyclohexylamino)-benzenesulfonic acid 2-(cyclopropanecarbonyl-amino)-1H-benzoimidazol-5-yl ester] was 1200 nM. In turn, `CCNC(=O)Nc1nc2cc(OS(=O)(=O)c3ccc(NC(C)CO)cc3)ccc2[nH]1` (centres unmarked) [Example 78-l, 4-(2-Hydroxy-1-methyl-ethylamino)-benzenesulfonic acid 2-[3-(2-ethyl)-ureido]-1H-benzoimidazol-5-yl ester] had an inhibition at 10 µM of 100%. In turn, `COC(=O)Nc1nc2cc(OS(=O)(=O)c3ccc(NCC(C)O)cc3)ccc2[nH]1` (centres unmarked) [Example 9, Methyl-5-(4-[2-methyl,2-hydroxyethyl]aminophenyl-sulfonyloxy) benzimidazole-2-carbamate] showed an IC50 of 2000 nM. The same measure, in the same setting: under `COCCNc1ccc(S(=O)(=O)Oc2ccc3[nH]c(NC(=O)NCc4ccccn4)nc3c2)cc1` [Example 78-f] stands 100 nM. As to `COC(=O)Nc1nc2ccc(OS(=O)(=O)c3ccc(OCCN4CCOCC4)cc3)cc2[nH]1` [Example 64-b, 4-(2-Morpholin-4-yl-ethoxy)-benzenesulfonic acid 2-methoxycarbonylamino-3H-benzoimidazol-5-yl ester], 10 µM produced 50% inhibition. Regarding `COC(=O)Nc1nc2cc(OS(=O)(=O)c3ccc(C#N)cc3)ccc2[nH]1` [Example 62-s, 4-Cyano-benzenesulfonic acid 2-methoxycarbonylamino-1H-benzoimidazol-5-yl ester], it took 1750 nM to reach half-maximal inhibition (IC50). `O=C(Nc1nc2cc(OS(=O)(=O)c3ccc(NCCN4CCNCC4)cc3)ccc2[nH]1)C1CC1` [Example 60-aa, 4-(2-Piperazin-1-yl-ethylamino)-benzene-sulfonic acid 2-(cyclopropanecarbonyl-amino)-1H-benzoimidazol-5-yl ester] yielded an IC50 of 3900 nM. The compound `COC(=O)Nc1nc2cc(OS(=O)(=O)c3ccc(F)cc3F)ccc2[nH]1` [Example 62-p, 2,4-Difluoro-benzenesulfonic acid 2-methoxycarbonylamino-1H-benzoimidazol-5-yl ester] showed an IC50 of 700 nM. On to `CCOC(=O)CCCNC(=O)Nc1nc2cc(OS(=O)(=O)c3ccc(NC4CCCC4)cc3)ccc2[nH]1` [Example 58-n, 4-{3-[5-(4-Cyclopentylamino-benzenesulfonyloxy)-1H-benzoimidazol-2-yl]-ureido}-butyric acid ethyl ester], for which the IC50 worked out at 600 nM.

For the compound `O=C(Nc1nc2cc(OS(=O)(=O)c3ccc(NCCCO)cc3)ccc2[nH]1)C1CC1` [Example 60-d, 4-(3-Hydroxy-propylamino)-benzenesulfonic acid 2-(cyclopropanecarbonyl-amino)-1H-benzoimidazo1-5-yl ester], the IC50 turned out to be 900 nM. In turn, `COCCNc1ccc(S(=O)(=O)Oc2ccc3[nH]c(NC(=O)NCCN4CCOCC4)nc3c2)cc1` [Example 78-e, 4-(2-Methoxy-ethylamino)-benzenesulfonic acid 2-[3-(2-morpholin-4-yl-ethyl)-ureido]-1H-benzoimidazol-5-yl ester] registered an IC50 of 600 nM. On the same count and under the same terms, under `COC(=O)Nc1nc2ccc(OS(=O)(=O)c3ccc(OC(F)(F)F)cc3)cc2[nH]1` [Example 61] stands 2060 nM; under `NCCNCCNc1ccc(S(=O)(=O)Oc2ccc3[nH]c(NC(=O)C4CC4)nc3c2)cc1` [Example 60-ad, 4-[2-(2-Amino-ethylamino)-ethylamino]-benzenesulfonic acid 2-(cyclopropanecarbonyl-amino)-1H-benzoimidazol-5-yl ester], 1300 nM.

For the compound `O=C(Nc1nc2cc(OS(=O)(=O)c3ccc(NCCOCCO)cc3)ccc2[nH]1)C1CC1` [Example 60-ai, 4-[2-(2-Hydroxy-ethoxy)-ethylamino]-benzenesulfonic acid 2-(cyclopropanecarbonyl-amino)-1H-benzoimidazol-5-yl ester], the IC50 was 1600 nM.

`CCOc1ccc(S(=O)(=O)Oc2ccc3nc(NC(=O)OC)[nH]c3c2)cc1` [Example 64-a, 4-Ethoxy-benzenesulfonic acid 2-methoxycarbonylamino-3H-benzoimidazol-5-yl ester] had an IC50 of 1000 nM. Same read-out and setting: the value for `O=C(Nc1nc2cc(OS(=O)(=O)c3ccc(NCCCN4CCCC4=O)cc3)ccc2[nH]1)C1CC1` [Example 60-ae, 4-[3-(2-Oxo-pyrrolidin-1-yl)-propylamino]-benzenesulfonic acid 2-(cyclopropanecarbonyl-amino)-1H-benzoimidazol-5-yl ester] was 2200 nM; that for `COC(=O)Nc1nc2cc(OS(=O)(=O)c3ccccc3C(F)(F)F)ccc2[nH]1` [Example 62-o, 2-Trifluoromethyl-benzenesulfonic acid 2-methoxycarbonylamino-1H-benzoimidazol-5-yl ester] was 1000 nM; that for `COC(=O)Nc1nc2cc(OS(=O)(=O)c3cccc([N+](=O)[O-])c3)ccc2[nH]1` [Example 62-l, 3-Nitro-benzenesulfonic acid 2-methoxycarbonylamino-1H-benzoimidazol-5-yl ester] was 2500 nM. `COCCNc1ccc(S(=O)(=O)Oc2ccc3[nH]c(NC(=O)OC)nc3c2)cc1` [Example 68-a, 4-(2-methoxy-ethylamino)-benzenesulfonic acid 2-methoxycarbonylamino-1H-benzoimidazol-5-yl ester] registered an inhibition at 10 µM of 97%. Turning to `COC(=O)Nc1nc2cc(OS(=O)(=O)c3ccccc3F)ccc2[nH]1` [Example 62-d, 2-Fluoro-benzenesulfonic acid 2-methoxycarbonylamino-1H-benzoimidazol-5-yl ester], the IC50 stood at 1300 nM. This lies in the single-digit micromolar range.

`O=C(Nc1nc2cc(OS(=O)(=O)c3ccc(NC4CCC4)cc3)ccc2[nH]1)C1CC1` [Example 60-ah, 4-Cyclobutylamino-benzenesulfonic acid 2-(cyclopropanecarbonyl-amino)-1H-benzoimidazol-5-yl ester] gave an IC50 of 550 nM. In the case of `NC(=O)C1CCCCC1Nc1ccc(S(=O)(=O)Oc2ccc3[nH]c(NC(=O)C4CC4)nc3c2)cc1` (centres unmarked) [Example 60-ab, 4-(2-Carbamoyl-cyclohexylamino)-benzenesulfonic acid 2-(cyclopropanecarbonyl-amino)-1H-benzoimidazol-5-yl ester], the IC50 worked out at 4000 nM. Compared with the last compound, the IC50 is about 7.3-fold higher. `NC(=O)[C@H]1CCCN1c1ccc(S(=O)(=O)Oc2ccc3[nH]c(NC(=O)C4CC4)nc3c2)cc1` [Example 60-y, 4-(2R-Carbamoyl-pyrrolidin-1-yl)-benzenesulfonic acid 2-(cyclopropanecarbonyl-amino)-1H-benzoimidazol-5-yl ester] gave an IC50 of 2500 nM.

For `CCOC(=O)C1CCN(C(=O)Nc2nc3cc(OS(=O)(=O)c4ccc(NC5CCCC5)cc4)ccc3[nH]2)CC1` [Example 58-t, 1-[5-(4-Cyclopentylamino-benzenesulfonyloxy)-1H-benzoimidazol-2-yl-carbamoyl]-piperidine-4-carboxylic acid ethyl ester], half-maximal inhibition (IC50) was put at 9000 nM.

Staying with this test, now noted: at 10 μM.
As to `O=C(NCc1ccccn1)Nc1nc2cc(OS(=O)(=O)c3ccc(OCc4ccccc4)cc3)ccc2[nH]1` [Example 78-n], the “inhibition of CDK4/cyclinD1 at 10 μM” value was determined as 54% inhibition at 10 μM.

`O=C(NCc1ccccn1)Nc1nc2cc(OS(=O)(=O)c3ccc(NCC4CCNCC4)cc3)ccc2[nH]1` [Example 78-u]: the “inhibition of CDK4/cyclinD1 at 10 μM” value was found to be 93% inhibition at 10 μM.

Values taken from patent US20050014811A1, “Substituted benzimidazole compounds and their use for the treatment of cancer” (Aventis Pharma S.A., priority 2001, published 2005).
